# Measurements as given in US20050107386A1, “Methods of treating diseases and disorders by targeting multiple kinases” (priority 2003, published 2005).
# Legend:
# Type in all cases: biochemical
# Conditions in all cases: 3 μM; percent of control kinase activity
# PAK2(h) = PAK2(h) (Homo sapiens, UniProt Q13177); experiment: PAK2(h) kinase assay
# Experimental: (§1) Six compounds (presumptive single agents) were tested against a panel of 50 kinases. The results are presented in Table 2; numbers for each kinase indicate the percent of control kinase activity in the presence of a 3μM concentration of the indicated agent.
# (§2) Agents that target two or more different kinases are useful in the methods of the invention as described elsewhere herein. Such compounds may be identified, and their effect on certain kinases may be identified, using the assays briefly described below in Examples 4-83. Each of these assays was carried out as described in Davies et al., Biochem. J., 351:95-105 (2000). All assays were carried out at 10 μM ATP unless otherwise noted.
# (§3) In a final reaction volume of 25 μl, PAK2(h) (5-10 mU) is incubated with 8 mM MOPS pH 7.0, 0.2 mM EDTA, 30 μM […] (SEQ ID NO:8), 10 mM MgAcetate and [γ-^33P-ATP] (specific activity approx. 500 cpm/pmol, concentration as required). The reaction is initiated by the addition of Mg^2+ [γ-^33P-ATP]. After incubation for 40 minutes at room temperature, the reaction is stopped by the addition of 5 μl of a 3% phosphoric acid solution. 10 μl of the reaction is then spotted onto a P30 filtermat and washed three times for 5 minutes in 75 mM phosphoric acid and once in methanol prior to drying and scintillation counting.
# CaMKIV(h) = CaMKIV(h) (Homo sapiens, UniProt Q16566); experiment: CaMKIV(h) kinase assay
# Experimental: as §1, §2
# as §3, with “CaMKIV (h)” for “PAK2(h)”, “40” for “8”, “Hepes” for “MOPS”, “7.4, 5” for “7.0, 0.2”, “CaCl2, 30 μg/ml calmodulin,” for “EDTA,”, “NO:11),” for “NO:8),”
# CK2(h) = CK2(h) (Homo sapiens, UniProt P68400); experiment: CK2(h) kinase assay
# Sequence of CK2(h) (P68400 whole entry): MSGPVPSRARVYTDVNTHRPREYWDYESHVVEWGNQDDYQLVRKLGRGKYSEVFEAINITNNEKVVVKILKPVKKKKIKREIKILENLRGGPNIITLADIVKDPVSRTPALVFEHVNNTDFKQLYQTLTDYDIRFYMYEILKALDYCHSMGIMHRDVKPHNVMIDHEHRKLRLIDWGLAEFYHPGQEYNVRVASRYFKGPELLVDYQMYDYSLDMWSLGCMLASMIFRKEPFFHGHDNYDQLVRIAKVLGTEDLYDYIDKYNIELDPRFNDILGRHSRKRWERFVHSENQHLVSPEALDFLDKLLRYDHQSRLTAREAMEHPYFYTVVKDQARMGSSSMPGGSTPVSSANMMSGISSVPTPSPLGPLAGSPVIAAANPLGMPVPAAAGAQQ
# Sequence of CK2(h) (P67870 whole entry partner): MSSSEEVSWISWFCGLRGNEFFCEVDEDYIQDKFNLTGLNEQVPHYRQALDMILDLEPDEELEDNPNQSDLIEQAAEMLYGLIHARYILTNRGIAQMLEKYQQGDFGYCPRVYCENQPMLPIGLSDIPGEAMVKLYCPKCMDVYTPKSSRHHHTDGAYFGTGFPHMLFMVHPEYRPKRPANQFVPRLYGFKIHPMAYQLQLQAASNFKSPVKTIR
# Experimental: as §1, §2
# as §3, with “μl, CK2(h)” for “μl, PAK2(h)”, “with 20” for “with 8”, “mM Hepes” for “mM MOPS”, “pH 7.6, 0.15 M NaCl, 0.1” for “pH 7.0, 0.2”, “EDTA, 5 mM DTT, 0.1% Triton X-100, 165” for “EDTA, 30”, “ID NO:6),” for “ID NO:8),”
# Fyn(h) = Fyn(h) (Homo sapiens, UniProt P06241); experiment: Fyn(h) kinase assay
# Sequence of Fyn(h) (P06241 whole entry): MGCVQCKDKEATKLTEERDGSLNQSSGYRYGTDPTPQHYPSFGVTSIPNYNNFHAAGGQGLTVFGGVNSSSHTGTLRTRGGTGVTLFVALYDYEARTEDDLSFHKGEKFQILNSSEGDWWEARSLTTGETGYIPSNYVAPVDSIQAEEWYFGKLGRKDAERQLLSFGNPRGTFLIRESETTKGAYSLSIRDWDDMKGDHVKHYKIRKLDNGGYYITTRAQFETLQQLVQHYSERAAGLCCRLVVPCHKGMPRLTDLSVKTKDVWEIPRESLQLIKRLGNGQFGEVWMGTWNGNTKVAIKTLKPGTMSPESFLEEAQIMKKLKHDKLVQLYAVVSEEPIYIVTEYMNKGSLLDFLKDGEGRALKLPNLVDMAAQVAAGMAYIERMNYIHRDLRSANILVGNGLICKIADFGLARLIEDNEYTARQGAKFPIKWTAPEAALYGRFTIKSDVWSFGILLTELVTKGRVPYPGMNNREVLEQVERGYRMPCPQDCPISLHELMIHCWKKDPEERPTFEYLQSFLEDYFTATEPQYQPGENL
# Experimental: as §1, §2
# (§4) In a final reaction volume of 25 μl, Fyn (h) (5-10 mU) is incubated with 50 mM Tris pH 7.5, 0.1 mM EGTA, 0.1 mM NaVanadate, 250 μM […] (Cdc2 peptide; SEQ ID NO:7), 10 mM MgAcetate and [γ-^33P-ATP] (specific activity approx. 500 cpm/pmol, concentration as required). The reaction is initiated by the addition of Mg^2+ [γ-^33P-ATP]. After incubation for 40 minutes at room temperature, the reaction is stopped by the addition of 5 μl of a 3% phosphoric acid solution. 10 μl of the reaction is then spotted onto a P30 filtermat and washed three times for 5 minutes in 75 mM phosphoric acid and once in methanol prior to drying and scintillation counting.
# IGF-1R(h) = IGF-1R(h) (Homo sapiens, UniProt P08069); experiment: IGF-1R(h) kinase assay
# Sequence of IGF-1R(h) (P08069 31-1367): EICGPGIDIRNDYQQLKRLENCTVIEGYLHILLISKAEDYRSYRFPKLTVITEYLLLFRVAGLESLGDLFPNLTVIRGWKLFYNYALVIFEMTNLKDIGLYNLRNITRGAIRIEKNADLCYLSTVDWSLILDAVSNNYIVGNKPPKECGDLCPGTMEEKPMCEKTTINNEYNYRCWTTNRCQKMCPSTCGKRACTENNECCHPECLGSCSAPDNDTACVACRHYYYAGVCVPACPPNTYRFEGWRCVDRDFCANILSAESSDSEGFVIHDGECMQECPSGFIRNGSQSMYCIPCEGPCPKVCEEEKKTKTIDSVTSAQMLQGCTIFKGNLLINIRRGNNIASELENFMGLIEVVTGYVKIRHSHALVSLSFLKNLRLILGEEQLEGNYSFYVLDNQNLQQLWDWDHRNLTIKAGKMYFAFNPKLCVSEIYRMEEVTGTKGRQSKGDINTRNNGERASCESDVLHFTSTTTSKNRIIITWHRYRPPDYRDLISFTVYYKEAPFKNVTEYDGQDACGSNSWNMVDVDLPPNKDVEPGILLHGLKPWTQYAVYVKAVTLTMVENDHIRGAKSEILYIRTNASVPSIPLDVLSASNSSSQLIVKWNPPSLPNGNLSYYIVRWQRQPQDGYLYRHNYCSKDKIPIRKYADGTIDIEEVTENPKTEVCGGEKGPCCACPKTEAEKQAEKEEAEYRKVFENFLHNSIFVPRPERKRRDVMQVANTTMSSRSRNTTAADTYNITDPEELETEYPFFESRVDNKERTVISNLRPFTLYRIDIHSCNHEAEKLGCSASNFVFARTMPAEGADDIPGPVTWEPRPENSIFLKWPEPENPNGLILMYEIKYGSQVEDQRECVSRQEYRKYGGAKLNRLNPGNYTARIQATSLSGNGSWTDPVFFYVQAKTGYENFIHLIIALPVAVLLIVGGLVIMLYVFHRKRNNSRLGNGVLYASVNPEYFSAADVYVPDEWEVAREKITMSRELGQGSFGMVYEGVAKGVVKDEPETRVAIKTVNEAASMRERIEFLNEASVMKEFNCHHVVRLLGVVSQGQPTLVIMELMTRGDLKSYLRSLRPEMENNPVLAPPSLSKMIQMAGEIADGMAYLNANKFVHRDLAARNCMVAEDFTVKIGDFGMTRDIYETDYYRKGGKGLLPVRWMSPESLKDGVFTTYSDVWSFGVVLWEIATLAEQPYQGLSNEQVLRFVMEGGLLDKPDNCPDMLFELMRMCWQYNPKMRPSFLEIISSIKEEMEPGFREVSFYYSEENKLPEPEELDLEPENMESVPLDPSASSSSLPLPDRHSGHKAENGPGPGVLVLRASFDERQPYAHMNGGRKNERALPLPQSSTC
# Experimental: as §1, §2
# as §4, with “IGF-IR” for “Fyn”, “NaVanadate, 0.1% β-mercaptoethanol,” for “NaVanadate,”, “(SEQ” for “(Cdc2 peptide; SEQ”, “NO:16), 10 mM MnCl2,” for “NO:7),”
# p70S6K(h) = p70S6K(h) (Homo sapiens, UniProt P23443); experiment: p70S6K(h) kinase assay
# Sequence of p70S6K(h) (P23443 whole entry): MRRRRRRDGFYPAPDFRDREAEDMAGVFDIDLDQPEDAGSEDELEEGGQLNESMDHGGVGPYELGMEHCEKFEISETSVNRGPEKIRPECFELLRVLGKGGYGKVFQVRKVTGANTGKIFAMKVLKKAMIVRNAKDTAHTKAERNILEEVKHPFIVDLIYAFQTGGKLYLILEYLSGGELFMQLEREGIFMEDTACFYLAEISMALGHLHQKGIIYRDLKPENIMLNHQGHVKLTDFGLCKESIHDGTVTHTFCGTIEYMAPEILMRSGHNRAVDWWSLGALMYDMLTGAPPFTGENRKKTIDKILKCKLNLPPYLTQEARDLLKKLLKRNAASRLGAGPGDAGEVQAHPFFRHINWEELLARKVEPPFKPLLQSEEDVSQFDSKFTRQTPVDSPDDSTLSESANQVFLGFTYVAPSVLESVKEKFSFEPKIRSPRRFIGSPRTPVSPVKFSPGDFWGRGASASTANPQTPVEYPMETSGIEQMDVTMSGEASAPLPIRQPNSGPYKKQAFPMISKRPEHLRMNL
# Experimental: as §1, §2
# as §3, with “μl, p70S6K (h)” for “μl, PAK2(h)”, “EDTA, 100” for “EDTA, 30”, “ID NO:9),” for “ID NO:8),”
# Syk(h) = Syk(h) (Homo sapiens, UniProt P43405); experiment: Syk(h) kinase assay
# Experimental: as §1, §2
# In a final reaction volume of 25 μl, Syk (h) (5-10 mU) is incubated with 50 mM Tris pH 7.5, 0.1 mM EGTA, 0.1 mM NaVanadate, 0.1% β-mercaptoethanol, 0.1 mg/ml poly(Glu, Tyr) 4:1, 10 mM MgAcetate and [γ-^33P-ATP] (specific activity approx. 500 cpm/pmol, concentration as required). The reaction is initiated by the addition of Mg^2+ [γ-^33P-ATP]. After incubation for 40 minutes at room temperature, the reaction is stopped by the addition of 5 μl of a 3% phosphoric acid solution. 10 μl of the reaction is then spotted onto a Filtermat A and washed three times for 5 minutes in 75 mM phosphoric acid and once in methanol prior to drying and scintillation counting.
# GSK3α(h) = GSK3α(h) (Homo sapiens, UniProt P49840); experiment: GSK3α(h) kinase assay
# Sequence of GSK3α(h) (P49840 whole entry): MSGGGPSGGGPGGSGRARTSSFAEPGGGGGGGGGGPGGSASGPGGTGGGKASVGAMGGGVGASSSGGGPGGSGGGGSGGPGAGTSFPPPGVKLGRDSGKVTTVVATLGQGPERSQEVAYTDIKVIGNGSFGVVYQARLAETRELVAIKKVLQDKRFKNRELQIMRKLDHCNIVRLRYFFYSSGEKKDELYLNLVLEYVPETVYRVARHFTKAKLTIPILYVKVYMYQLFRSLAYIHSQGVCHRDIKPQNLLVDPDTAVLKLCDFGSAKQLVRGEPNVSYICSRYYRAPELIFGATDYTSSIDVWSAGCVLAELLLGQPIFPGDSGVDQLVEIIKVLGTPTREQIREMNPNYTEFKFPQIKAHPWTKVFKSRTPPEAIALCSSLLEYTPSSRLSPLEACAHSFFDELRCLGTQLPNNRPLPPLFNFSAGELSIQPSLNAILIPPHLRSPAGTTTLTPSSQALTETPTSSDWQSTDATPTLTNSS
# Experimental: as §1, §2
# Sequence of PAK2(h) (Q13177 whole entry): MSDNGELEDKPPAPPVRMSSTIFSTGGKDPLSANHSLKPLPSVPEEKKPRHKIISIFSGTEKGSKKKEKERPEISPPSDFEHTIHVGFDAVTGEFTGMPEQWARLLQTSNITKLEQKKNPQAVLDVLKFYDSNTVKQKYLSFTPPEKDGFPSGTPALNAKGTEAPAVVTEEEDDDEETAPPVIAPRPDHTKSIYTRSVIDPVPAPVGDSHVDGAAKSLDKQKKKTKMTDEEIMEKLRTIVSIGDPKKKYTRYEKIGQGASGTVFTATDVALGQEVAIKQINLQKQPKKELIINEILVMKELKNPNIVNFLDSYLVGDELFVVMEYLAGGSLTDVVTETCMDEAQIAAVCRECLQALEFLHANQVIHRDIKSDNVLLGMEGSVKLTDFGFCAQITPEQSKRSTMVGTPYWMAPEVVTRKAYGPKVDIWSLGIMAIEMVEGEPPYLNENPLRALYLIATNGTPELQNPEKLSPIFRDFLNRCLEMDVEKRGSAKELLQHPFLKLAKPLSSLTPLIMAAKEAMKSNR
structure (smiles),measurement,setting,value
"CCN1CCC[C@H]1COc1ccc2cc(-c3n[nH]c4ccc(-c5nc(CC(C)(C)C)n[nH]5)cc34)ccc2c1 [CC005, 2-[((2s)-1-ethylpyrrolidin-2-yl)methoxy]-6-{5-[3-(2,2-Dimethylpropyl)(1H-1,2,4,-triazol-5-yl)](1H-indazol-3-yl)}naphthalene]","Inhibitory activity (% of control), PAK2(h)",PAK2(h),13 % of control
same,"Inhibitory activity (% of control), CaMKIV(h)",CaMKIV(h),22 % of control
same,"Inhibitory activity (% of control), CK2(h)",CK2(h),74 % of control
same,"Inhibitory activity (% of control), Fyn(h)",Fyn(h),4 % of control
same,"Inhibitory activity (% of control), IGF-1R(h)",IGF-1R(h),58 % of control
same,"Inhibitory activity (% of control), p70S6K(h)",p70S6K(h),3 % of control
same,"Inhibitory activity (% of control), Syk(h)",Syk(h),15 % of control
same,"Inhibitory activity (% of control), GSK3α(h)",GSK3α(h),35 % of control
"COc1ccc2cc(-c3n[nH]c4ccc(-c5n[nH]c(CN6CCOCC6)n5)cc34)ccc2c1 [CC001, 3-(6-Methoxynaphthalen-2-yl)-5-(5-Morpholin-4-Ylmethyl-1H-[1,2,4]Triazol-3-yl)-1H-Indazole]","Inhibitory activity (% of control), PAK2(h)",PAK2(h),68 % of control
same,"Inhibitory activity (% of control), CaMKIV(h)",CaMKIV(h),82 % of control
same,"Inhibitory activity (% of control), CK2(h)",CK2(h),45 % of control
same,"Inhibitory activity (% of control), Fyn(h)",Fyn(h),14 % of control
same,"Inhibitory activity (% of control), IGF-1R(h)",IGF-1R(h),92 % of control
same,"Inhibitory activity (% of control), p70S6K(h)",p70S6K(h),17 % of control
same,"Inhibitory activity (% of control), Syk(h)",Syk(h),26 % of control
same,"Inhibitory activity (% of control), GSK3α(h)",GSK3α(h),15 % of control
"CC(C)(C)Cc1nc(-c2ccc3[nH]nc(-c4ccc5cc(OCc6ccccn6)ccc5c4)c3c2)n[nH]1 [CC004, 5-[5-(2,2-Dimethyl-propyl)-1H-[1,2,4]triazol-3-yl]-3-[6-(pyridine-2-ylmethoxy)-naphthalen-2-yl]-1H-indazole]","Inhibitory activity (% of control), PAK2(h)",PAK2(h),62 % of control
same,"Inhibitory activity (% of control), CaMKIV(h)",CaMKIV(h),80 % of control
same,"Inhibitory activity (% of control), CK2(h)",CK2(h),98 % of control
same,"Inhibitory activity (% of control), Fyn(h)",Fyn(h),67 % of control
same,"Inhibitory activity (% of control), IGF-1R(h)",IGF-1R(h),96 % of control
same,"Inhibitory activity (% of control), p70S6K(h)",p70S6K(h),40 % of control
same,"Inhibitory activity (% of control), Syk(h)",Syk(h),47 % of control
same,"Inhibitory activity (% of control), GSK3α(h)",GSK3α(h),65 % of control
"O=C(NC1CCCC1)c1cccc(-c2n[nH]c3ccc(-c4nc[nH]n4)cc23)c1 [CC007, 3-(5-(1H-1,2,4-triazol-3-yl)(1H-indazol-3-yl))phenyl-N-cyclopentylcarboxamide, reference compound]","Inhibitory activity (% of control), PAK2(h)",PAK2(h),86 % of control
same,"Inhibitory activity (% of control), CaMKIV(h)",CaMKIV(h),86 % of control
same,"Inhibitory activity (% of control), CK2(h)",CK2(h),27 % of control
same,"Inhibitory activity (% of control), Fyn(h)",Fyn(h),66 % of control
same,"Inhibitory activity (% of control), IGF-1R(h)",IGF-1R(h),88 % of control
same,"Inhibitory activity (% of control), p70S6K(h)",p70S6K(h),83 % of control
same,"Inhibitory activity (% of control), Syk(h)",Syk(h),51 % of control
same,"Inhibitory activity (% of control), GSK3α(h)",GSK3α(h),18 % of control
"CC(C)Cc1nc(-c2ccc3[nH]nc(-c4ccc5cc(OCCN6CCCC6)ccc5c4)c3c2)n[nH]1 [CC002, 5-(5-Isobutyl-1H-[1,2,4]Triazol-3-yl)-3-[6-(2-Pyrrolidin-1-yl-Ethoxy)-Naphthalen-2-yl]-1H-Indazole]","Inhibitory activity (% of control), PAK2(h)",PAK2(h),21 % of control
same,"Inhibitory activity (% of control), CaMKIV(h)",CaMKIV(h),60 % of control
same,"Inhibitory activity (% of control), CK2(h)",CK2(h),41 % of control
same,"Inhibitory activity (% of control), Fyn(h)",Fyn(h),4 % of control
same,"Inhibitory activity (% of control), IGF-1R(h)",IGF-1R(h),55 % of control
same,"Inhibitory activity (% of control), p70S6K(h)",p70S6K(h),16 % of control
same,"Inhibitory activity (% of control), Syk(h)",Syk(h),14 % of control
same,"Inhibitory activity (% of control), GSK3α(h)",GSK3α(h),38 % of control
"Fc1ccc(-c2n[nH]c3ccc(-c4n[nH]c(C5CCCC5)n4)cc23)cc1 [CC006, 5-(5-Cyclopentyl-1H-[1,2,4]triazol-3-yl)-3-(4-fluoro-phenyl)-1H-indazole, reference compound]","Inhibitory activity (% of control), PAK2(h)",PAK2(h),56 % of control
same,"Inhibitory activity (% of control), CaMKIV(h)",CaMKIV(h),95 % of control
same,"Inhibitory activity (% of control), CK2(h)",CK2(h),50 % of control
same,"Inhibitory activity (% of control), Fyn(h)",Fyn(h),65 % of control
same,"Inhibitory activity (% of control), IGF-1R(h)",IGF-1R(h),65 % of control
same,"Inhibitory activity (% of control), p70S6K(h)",p70S6K(h),41 % of control
same,"Inhibitory activity (% of control), Syk(h)",Syk(h),46 % of control
same,"Inhibitory activity (% of control), GSK3α(h)",GSK3α(h),38 % of control
